# Data: patent publication US8192962B2, “Processes for detecting toxic substances” (Daikin Industries, Ltd., priority 2001, dated 2012)
# System: Detoxification protein genes
# Experiment: DNA chip mRNA expression in yeast, detoxification protein genes (Table 8)
# Format: cell-based, Saccharomyces cerevisiae S288C
# Procedure, shortened: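 Expression change after 2 h toxicant exposure (growth-inhibiting, sub-lethal) of log-phase S. cerevisiae S288C at 25° C. Oligo-dT-purified mRNA was labeled with Cy3-dUTP or Cy5-dUTP and hybridized >12 h at 65° C. to a genome-wide chip; ratio of scanned fluorescence to control.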
smiles,measurement,setting,value
"CCCCC[C@H](O)CC(=O)CCc1ccc(O)c(OC)c1 [(13), gingerol]",The level of expressed mRNA in the presence of chemical substance/The level of expressed mRNA in the absence of chemical substance,yeast gene YBL064C,4.1
same,The level of expressed mRNA in the presence of chemical substance/The level of expressed mRNA in the absence of chemical substance,yeast gene YBR244W,0.4
same,The level of expressed mRNA in the presence of chemical substance/The level of expressed mRNA in the absence of chemical substance,yeast gene YBR293W,3.0
same,The level of expressed mRNA in the presence of chemical substance/The level of expressed mRNA in the absence of chemical substance,yeast gene YDL168W,1.3
same,The level of expressed mRNA in the presence of chemical substance/The level of expressed mRNA in the absence of chemical substance,yeast gene YDR256C,1.1
same,The level of expressed mRNA in the presence of chemical substance/The level of expressed mRNA in the absence of chemical substance,yeast gene YDR453C,1.4
same,The level of expressed mRNA in the presence of chemical substance/The level of expressed mRNA in the absence of chemical substance,yeast gene YDR538W,0.7
same,The level of expressed mRNA in the presence of chemical substance/The level of expressed mRNA in the absence of chemical substance,yeast gene YEL027W,0.7
same,The level of expressed mRNA in the presence of chemical substance/The level of expressed mRNA in the absence of chemical substance,yeast gene YER185W,2.1
same,The level of expressed mRNA in the presence of chemical substance/The level of expressed mRNA in the absence of chemical substance,yeast gene YFL050C,1.2
same,The level of expressed mRNA in the presence of chemical substance/The level of expressed mRNA in the absence of chemical substance,yeast gene YGR088W,1.2
same,The level of expressed mRNA in the presence of chemical substance/The level of expressed mRNA in the absence of chemical substance,yeast gene YGR138C,0.6
same,The level of expressed mRNA in the presence of chemical substance/The level of expressed mRNA in the absence of chemical substance,yeast gene YGR209C,1.4
same,The level of expressed mRNA in the presence of chemical substance/The level of expressed mRNA in the absence of chemical substance,yeast gene YHR008C,1.2
same,The level of expressed mRNA in the presence of chemical substance/The level of expressed mRNA in the absence of chemical substance,yeast gene YHR048W,1.1
same,The level of expressed mRNA in the presence of chemical substance/The level of expressed mRNA in the absence of chemical substance,yeast gene YIR002C,1.2
same,The level of expressed mRNA in the presence of chemical substance/The level of expressed mRNA in the absence of chemical substance,yeast gene YJL101C,1.0
same,The level of expressed mRNA in the presence of chemical substance/The level of expressed mRNA in the absence of chemical substance,yeast gene YKL064W,1.6
same,The level of expressed mRNA in the presence of chemical substance/The level of expressed mRNA in the absence of chemical substance,yeast gene YKR066C,0.6
same,The level of expressed mRNA in the presence of chemical substance/The level of expressed mRNA in the absence of chemical substance,yeast gene YKR106W,1.4
same,The level of expressed mRNA in the presence of chemical substance/The level of expressed mRNA in the absence of chemical substance,yeast gene YLL028W,4.1
same,The level of expressed mRNA in the presence of chemical substance/The level of expressed mRNA in the absence of chemical substance,yeast gene YLL057C,1.4
same,The level of expressed mRNA in the presence of chemical substance/The level of expressed mRNA in the absence of chemical substance,yeast gene YLR046C,1.2
same,The level of expressed mRNA in the presence of chemical substance/The level of expressed mRNA in the absence of chemical substance,yeast gene YML028W,1.6
same,The level of expressed mRNA in the presence of chemical substance/The level of expressed mRNA in the absence of chemical substance,yeast gene YMR015C,0.4
same,The level of expressed mRNA in the presence of chemical substance/The level of expressed mRNA in the absence of chemical substance,yeast gene YMR038C,1.7
same,The level of expressed mRNA in the presence of chemical substance/The level of expressed mRNA in the absence of chemical substance,yeast gene YNL239W,3.6
same,The level of expressed mRNA in the presence of chemical substance/The level of expressed mRNA in the absence of chemical substance,yeast gene YNL241C,4.9
same,The level of expressed mRNA in the presence of chemical substance/The level of expressed mRNA in the absence of chemical substance,yeast gene YNL259C,1.1
same,The level of expressed mRNA in the presence of chemical substance/The level of expressed mRNA in the absence of chemical substance,yeast gene YOL158C,1.4
same,The level of expressed mRNA in the presence of chemical substance/The level of expressed mRNA in the absence of chemical substance,yeast gene YOR251C,1.0
same,The level of expressed mRNA in the presence of chemical substance/The level of expressed mRNA in the absence of chemical substance,yeast gene YOR273C,2.6
same,The level of expressed mRNA in the presence of chemical substance/The level of expressed mRNA in the absence of chemical substance,yeast gene YPR200C,0.6
